Reference: patent publication US20100298141A1, “SUBSTITUTED PYRIDINE N-OXIDE HERBICIDES” (E. I. DU PONT DE NEMOURS AND COMPANY, priority 2007, published 2010)

Experiments:
[1] = system: common ragweed; assay: Test C pre-/postemergence test; format: in vivo, Ambrosia elation
How it was run: (§1)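 Seeds were planted and treated preemergence with test chemical in a non-phytotoxic solvent mixture containing surfactant. Postemergence applications of the same formulation went onto plants 2 to 18 cm tall (1- to 4-leaf stage). A dash marks no test result.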

[2] = system: johnsongrass; assay: Test C pre-/postemergence test; format: in vivo, Sorghum halepense
How it was run: as §1

[3] = system: downy brome; assay: Test C pre-/postemergence test; format: in vivo, Bromus tectorum
How it was run: as §1

[4] = system: wheat; assay: Test A pre-/postemergence greenhouse test; format: in vivo, Triticum aestivum; conditions: for Plant response rating, Wheat: 0 to 100 scale where 0 is no effect and 100 is complete control; for Wheat plant response rating: 0 to 100 scale
How it was run: (§2)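 Test compounds in non-phytotoxic solvent with surfactant were applied as a preemergence soil spray to seeded loam/sand pots and, concurrently, postemergence to plants at 2–10 cm, one- to two-leaf stage. About ten days in greenhouse, then injury visually rated against untreated controls.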

[5] = system: crabgrass; assay: Test A pre-/postemergence greenhouse test; format: in vivo, Digitaria sanguinalis; conditions: for Plant response rating, Crabgrass, Large: 0 to 100 scale where 0 is no effect and 100 is complete control; for Crabgrass, Large plant response rating: 0 to 100 scale
How it was run: as §2

[6] = system: soybean; assay: Test C pre-/postemergence test; format: in vivo, Glycine max
How it was run: as §1

[7] = system: giant foxtail; assay: Test C pre-/postemergence test; format: in vivo, Setaria faberii; conditions: for Foxtail, Giant plant response rating: preemergence, scale 0 (no effect) to 100 (complete control)
How it was run: as §1

[8] = system: umbrella sedge; assay: Test C flooded paddy test; format: in vivo, Cyperus difformis; conditions: Flood
How it was run: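 In-water treatment: compound dosed into 3 cm flood over soil, water level unchanged throughout. Controls run alongside; visual assessment at day 13–15.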

[9] = system: giant foxtail; assay: Test A pre-/postemergence greenhouse test; format: in vivo, Setaria faberi; conditions: for Plant response rating, Foxtail, Giant: 0 to 100 scale where 0 is no effect and 100 is complete control; for Foxtail, Giant plant response rating: 0 to 100 scale
How it was run: as §2

[10] = system: morningglory; assay: Test A pre-/postemergence greenhouse test; format: in vivo, Ipomoea spp.; conditions: for Plant response rating, Morningglory: 0 to 100 scale where 0 is no effect and 100 is complete control; for Morningglory plant response rating: 0 to 100 scale
How it was run: as §2

[11] = system: Goosegrass; assay: Test C pre-/postemergence test; format: in vivo, Eleusin indica
How it was run: as §1

[12] = system: morningglory; assay: Test C pre-/postemergence test; format: in vivo, Ipomoea coccinea
How it was run: as §1

[13] = system: lambsquarters; assay: Test C pre-/postemergence test; format: in vivo, Chenopodium album; conditions: Postemergence; for Plant response rating, Lambsquarters: scale 0 to 100, 0 no effect, 100 complete control
How it was run: as §1

[14] = system: cocklebur; assay: Test C pre-/postemergence test; format: in vivo, Xanthium strumarium; conditions: for Plant response rating, Cocklebur: scale 0 to 100, 0 no effect, 100 complete control
How it was run: as §1

[15] = system: corn; assay: Test C pre-/postemergence test; format: in vivo, Zea mays
How it was run: as §1

[16] = system: woolly cupgrass; assay: Test C pre-/postemergence test; format: in vivo, Eriochloa villosa
How it was run: as §1

[17] = system: yellow nutsedge; assay: Test C pre-/postemergence test; format: in vivo, Cyperus esculentus
How it was run: as §1

[18] = 62 g ai/ha, Preemergence, scale 0 to 100
[19] = 125 g ai/ha, preemergence, scale 0 (no effect) to 100 (complete control)
[20] = Postemergence, 125 g ai/ha, scale 0 to 100, 0 no effect, 100 complete control
[21] = Postemergence, 250 g ai/ha, scale 0 to 100, 0 no effect, 100 complete control
[22] = Preemergence, 31 g ai/ha, scale 0 to 100 (0 no effect, 100 complete control)
[23] = preemergence, 250 g ai/ha, scale 0 (no effect) to 100 (complete control)
[24] = Postemergence, 62 g ai/ha, scale 0 to 100, 0 no effect, 100 complete control
[25] = Postemergence, 500 g ai/ha, 0 is no effect, 100 is complete control
[26] = Preemergence, 125 g ai/ha, 0 no effect, 100 complete control

CCn1nc(C(F)(F)F)c(C[S+]([O-])c2cccc[n+]2[O-])c1OCC(F)(F)F (racemic) [Compound 65]
Ragweed plant response rating [1, 18]: 100
Ragweed plant response rating [1, 19]: 100
Plant response rating (0 to 100), Ragweed ([1]; Postemergence, 31 g ai/ha): 0
Plant response rating (0 to 100), Ragweed ([1]; Postemergence, 62 g ai/ha): 0
Plant response rating, Ragweed [1, 20]: 0
Plant response rating, Ragweed [1, 21]: 0
Plant response rating, Ragweed [1, 22]: 100
Ragweed plant response rating [1, 23]: 100
Johnsongrass plant response rating [2, 18]: 100
Johnsongrass plant response rating [2, 19]: 100
Plant response rating (0 to 100), Johnsongrass ([2]; Postemergence, 31 g ai/ha): 0
Plant response rating, Johnsongrass [2, 24]: 0
Plant response rating, Johnsongrass [2, 20]: 0
Plant response rating, Johnsongrass [2, 21]: 0
Plant response rating, Johnsongrass [2, 22]: 98
Johnsongrass plant response rating [2, 23]: 100
Bromegrass, Downy plant response rating [3, 18]: 100
Bromegrass, Downy plant response rating [3, 19]: 100
Plant response rating (0 to 100), Bromegrass, Downy ([3]; Postemergence, 31 g ai/ha): 0
Plant response rating, Bromegrass, Downy [3, 24]: 10
Plant response rating, Bromegrass, Downy [3, 20]: 30
Plant response rating, Bromegrass, Downy [3, 21]: 75
Plant response rating, Bromegrass, Downy [3, 22]: 65
Bromegrass, Downy plant response rating [3, 23]: 100
Plant response rating, Wheat ([4]; Postemergence, 125 g ai/ha): 60
Wheat plant response rating [4, 25]: 70
Wheat plant response rating [4, 26]: 80
Plant response rating, Wheat ([4]; Preemergence, 500 g ai/ha): 100
Plant response rating, Crabgrass, Large ([5]; Postemergence, 125 g ai/ha): 80
Crabgrass, Large plant response rating [5, 25]: 90
Crabgrass, Large plant response rating [5, 26]: 90
Plant response rating, Crabgrass, Large ([5]; Preemergence, 500 g ai/ha): 100
Plant response rating (0 to 100), Soybean ([6]; Postemergence, 31 g ai/ha): 20
Plant response rating (0 to 100), Soybean ([6]; Postemergence, 62 g ai/ha): 50
Plant response rating, Soybean [6, 20]: 60
Plant response rating, Soybean [6, 21]: 90
Plant response rating, Soybean [6, 22]: 5
Foxtail, Giant plant response rating ([7]; 125 g ai/ha): 100
Plant response rating (0 to 100), Foxtail, Giant ([7]; Postemergence, 31 g ai/ha): 0
Plant response rating, Foxtail, Giant [7, 24]: 0
Plant response rating, Foxtail, Giant [7, 20]: 40
Plant response rating, Foxtail, Giant [7, 21]: 80
Plant response rating, Foxtail, Giant [7, 22]: 98
Foxtail, Giant plant response rating ([7]; 250 g ai/ha): 100
Plant response rating, Sedge, Umbrella ([8]; 62 g ai/ha, scale 0 to 100 (0 no effect, 100 complete control)): 60
Plant response rating, Sedge, Umbrella ([8]; 250 g ai/ha, scale 0 to 100, 0 no effect, 100 complete control, 13 to 15 days): 100
Plant response rating, Foxtail, Giant ([9]; Postemergence, 125 g ai/ha): 90
Foxtail, Giant plant response rating [9, 25]: 100
Foxtail, Giant plant response rating [9, 26]: 100
Plant response rating, Foxtail, Giant ([9]; Preemergence, 500 g ai/ha): 100
Plant response rating, Morningglory ([10]; Postemergence, 125 g ai/ha): 60
Morningglory plant response rating [10, 25]: 90
Morningglory plant response rating [10, 26]: 60
Plant response rating, Morningglory ([10]; Preemergence, 500 g ai/ha): 100
Goosegrass plant response rating [11, 18]: 100
Goosegrass plant response rating [11, 19]: 100
Plant response rating (0 to 100), Goosegrass ([11]; Postemergence, 31 g ai/ha): 0
Plant response rating, Goosegrass [11, 24]: 0
Plant response rating, Goosegrass [11, 20]: 0
Plant response rating, Goosegrass [11, 21]: 70
Plant response rating, Goosegrass [11, 22]: 100
Goosegrass plant response rating [11, 23]: 100
Morningglory plant response rating [12, 18]: 0
Plant response rating (0 to 100), Morningglory ([12]; Postemergence, 31 g ai/ha): 0
Plant response rating, Morningglory [12, 24]: 0
Plant response rating, Morningglory [12, 20]: 0
Plant response rating, Morningglory [12, 21]: 0
Plant response rating, Morningglory [12, 22]: 0
Morningglory plant response rating [12, 23]: 75
Plant response rating (0 to 100), Lambsquarters ([13]; 31 g ai/ha): 0
Plant response rating, Lambsquarters ([13]; 62 g ai/ha): 0
Plant response rating, Lambsquarters ([13]; 125 g ai/ha): 50
Plant response rating, Lambsquarters ([13]; 250 g ai/ha): 50
Cocklebur plant response rating [14, 18]: 0
Plant response rating (0 to 100), Cocklebur ([14]; Postemergence, 31 g ai/ha): 0
Plant response rating, Cocklebur ([14]; Postemergence, 62 g ai/ha): 0
Plant response rating, Cocklebur ([14]; Postemergence, 125 g ai/ha): 0
Plant response rating, Cocklebur ([14]; Postemergence, 250 g ai/ha): 0
Cocklebur plant response rating [14, 23]: 90
Corn plant response rating [15, 18]: 100
Corn plant response rating [15, 19]: 100
Plant response rating (0 to 100), Corn ([15]; Postemergence, 31 g ai/ha): 0
Plant response rating, Corn [15, 24]: 0
Plant response rating, Corn [15, 20]: 50
Plant response rating, Corn [15, 22]: 70
Corn plant response rating [15, 23]: 100
Cupgrass, Woolly plant response rating [16, 18]: 40
Cupgrass, Woolly plant response rating [16, 19]: 100
Plant response rating (0 to 100), Cupgrass, Woolly ([16]; Postemergence, 31 g ai/ha): 0
Plant response rating, Cupgrass, Woolly [16, 24]: 0
Plant response rating, Cupgrass, Woolly [16, 20]: 0
Plant response rating, Cupgrass, Woolly [16, 21]: 40
Plant response rating, Cupgrass, Woolly [16, 22]: 40
Cupgrass, Woolly plant response rating [16, 23]: 100
Nutsedge, Yellow plant response rating [17, 18]: 40
Nutsedge, Yellow plant response rating [17, 19]: 50
Plant response rating (0 to 100), Nutsedge, Yellow ([17]; Postemergence, 31 g ai/ha): 0
Plant response rating, Nutsedge, Yellow [17, 24]: 0
Plant response rating, Nutsedge, Yellow [17, 20]: 0
Plant response rating, Nutsedge, Yellow [17, 21]: 0
Plant response rating, Nutsedge, Yellow [17, 22]: 0
Nutsedge, Yellow plant response rating [17, 23]: 60
